± gives the expanded uncertainty stated by the source.
Columns and labels:
[1] = Crystal
[2] = Solid-liquid equilibrium temperature; conditions: Crystal

Normal melting temperature [1] [°C] | Solid-liquid equilibrium temperature ([2]; 20000 kPa) [K] | Solid-liquid equilibrium temperature ([2]; 40000 kPa) [K] | Solid-liquid equilibrium temperature ([2]; 60000 kPa) [K] | Solid-liquid equilibrium temperature ([2]; 70000 kPa) [K] | Solid-liquid equilibrium temperature ([2]; 80000 kPa) [K] | Solid-liquid equilibrium temperature ([2]; 90000 kPa) [K] | Structure (SMILES)
43.03 ± 1.2 | 320.6 ± 1.2 | 325.17 ± 1.2 | 329.76 ± 1.2 | 331.86 ± 1.2 | 334.1 ± 1.2 | 336.1 ± 1.2 | CCCCCCCCCCCC(=O)O [dodecanoic acid]
16.71 ± 1.2 | 294.52 ± 1.2 | 299.35 ± 1.2 | 303.85 ± 1.2 | – | 308.09 ± 1.2 | 309.98 ± 1.2 | CCCCCCCC(=O)O [octanoic acid]
54.4 ± 1.2 | 332.3 ± 1.2 | 337.25 ± 1.2 | 342.31 ± 1.2 | 344.68 ± 1.2 | 346.55 ± 1.2 | 348.93 ± 1.2 | CCCCCCCCCCCCCC(=O)O [tetradecanoic acid]

From the NIST ThermoML archive (doi:10.1016/j.fluid.2007.02.007)
